The supplement of paper PMC12513837
± gives the standard deviation of the averaged measurements.

These test systems were tested with CC(=O)N1CCc2c(c(N3CCCc4cc(-c5cnn(C)c5)c(C(F)F)cc43)nn2C2CCC(CN3CCN(c4ccc5c(c4)C(=O)N(C4CCC(=O)NC4=O)C5=O)CC3)CC2)C1 [CBPD-409] (assay: AUC of viability dose-response curve (relative to vehicle, 8 doses up to 10 µM) (fraction); higher = less sensitive (more viable); extreme values may be limits of the assay).
Procedure: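 PRISM multiplexed pooled barcoded cell line viability screen at the Broad Institute, 887 cancer cell lines treated with CBPD-409 (p300/CBP PROTAC degrader) at 8 concentrations in threefold dilution, top dose 10 µM. The read-out is the area under the dose-response curve of relative viability versus vehicle (n=3). AUC < 0.3 is called strongly sensitive and AUC > 0.8 resistant.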

| Test System | AUC of viability dose-response curve |
| --- | --- |
| NCIH520_LUNG | 0.861 |
| RMGI_OVARY | 0.73 |
| MONOMAC6_HAEMATOPOIETIC_AND_LYMPHOID_TISSUE | 0.577 |
| TC106_BONE | 1 |
| COGAR359_SOFT_TISSUE | 1 |
| GP2D_LARGE_INTESTINE | 0.847 |
| LOVO_LARGE_INTESTINE | 0.131 |
| SW626_LARGE_INTESTINE | 0.387 |
| DU4475_BREAST | 0.831 |
| SNU46_UPPER_AERODIGESTIVE_TRACT | 0.547 |
| SNU869_BILIARY_TRACT | 1 |
| SKM1_HAEMATOPOIETIC_AND_LYMPHOID_TISSUE | 1 |
| KMRC20_KIDNEY | 0.738 |
| LN229_CENTRAL_NERVOUS_SYSTEM | 1 |
| NCIH522_LUNG | 0.942 |
| CAL12T_LUNG | 0.645 |
| LAMA84_HAEMATOPOIETIC_AND_LYMPHOID_TISSUE | 0.832 |
| SF126_CENTRAL_NERVOUS_SYSTEM | 0.521 |
| EKVX_LUNG | 1 |
| JHH7_LIVER | 0.291 |
| A253_SALIVARY_GLAND | 0.883 |
| SIMA_AUTONOMIC_GANGLIA | 0.3 ± 0.073 |
| KE97_STOMACH | 1 |
| HCC2108_LUNG | 0.793 |

| Test System | AUC of viability dose-response curve |
| --- | --- |
| SW780_URINARY_TRACT | 1 |
| HCC4006_LUNG | 1 |
| TOLEDO_HAEMATOPOIETIC_AND_LYMPHOID_TISSUE | 0.416 |
| CCFSTTG1_CENTRAL_NERVOUS_SYSTEM | 0.992 |
| NCIH1944_LUNG | 1 |
| SNU899_UPPER_AERODIGESTIVE_TRACT | 0.668 |
| TTC442_SOFT_TISSUE | 0.911 |
| SKMEL2_SKIN | 1 |
| PACADD161_PANCREAS | 0.652 |
| TOV112D_OVARY | 0.724 |
| HS729_SOFT_TISSUE | 0.807 ± 0.27 |
| KP3_PANCREAS | 1 |
| RCM1_LARGE_INTESTINE | 1 |
| TC32_BONE | 0.859 |
| LS513_LARGE_INTESTINE | 0.568 |
| CORL279_LUNG | 1 |
| KNS60_CENTRAL_NERVOUS_SYSTEM | 0.779 |
| MHHES1_BONE | 0.842 ± 0.2 |
| HARA_LUNG | 0.981 |
| SF295_CENTRAL_NERVOUS_SYSTEM | 0.833 |
| KNS42_CENTRAL_NERVOUS_SYSTEM | 0.413 |
| MKN1_STOMACH | 1 |
| JAR_PLACENTA | 0.238 |
| DOTC24510_CERVIX | 0.344 |

| Test System | AUC of viability dose-response curve |
| --- | --- |
| ONDA9_CENTRAL_NERVOUS_SYSTEM | 1 |
| 697_HAEMATOPOIETIC_AND_LYMPHOID_TISSUE | 0.293 |
| RERFLCKJ_LUNG | 1 |
| SUPB15_HAEMATOPOIETIC_AND_LYMPHOID_TISSUE | 0.185 |
| SNU1066_UPPER_AERODIGESTIVE_TRACT | 1 |
| COLO679_SKIN | 0.3 |
| CASKI_CERVIX | 0.376 |
| RKN_SOFT_TISSUE | 1 |
| SHMAC5_PROSTATE | 1 |
| KALS1_CENTRAL_NERVOUS_SYSTEM | 1 |
| BICR31_UPPER_AERODIGESTIVE_TRACT | 0.695 |
| NCIH322_LUNG | 0.574 |
| HEC59_ENDOMETRIUM | 0.677 |
| MALME3M_SKIN | 0.272 |
| NCIH2170_LUNG | 1 |
| MPP89_PLEURA | 1 |
| NCIH2172_LUNG | 0.62 |
| MCC13_SKIN | 1 |
| SNU1077_ENDOMETRIUM | 0.846 |
| BT474_BREAST | 0.643 |
| U343_CENTRAL_NERVOUS_SYSTEM | 1 |
| TGW_AUTONOMIC_GANGLIA | 0.673 |
| KU1919_URINARY_TRACT | 0.267 |
| NCIH23_LUNG | 0.771 |

| Test System | AUC of viability dose-response curve |
| --- | --- |
| LNZ308_CENTRAL_NERVOUS_SYSTEM | 0.998 |
| CL11_LARGE_INTESTINE | 0.326 |
| MCF7_BREAST | 0.701 |
| HH_HAEMATOPOIETIC_AND_LYMPHOID_TISSUE | 1 |
| IGR1_SKIN | 0.626 |
| TE15_OESOPHAGUS | 0.364 |
| NCIH650_LUNG | 0.606 |
| SISO_CERVIX | 0.987 |
| TGBC18TKB_LARGE_INTESTINE | 0.938 |
| KARPAS422_HAEMATOPOIETIC_AND_LYMPHOID_TISSUE | 0.752 |
| LN382_CENTRAL_NERVOUS_SYSTEM | 1 |
| KYM1_SOFT_TISSUE | 0.446 |
| HS852T_SKIN | 1 |
| HA1E_KIDNEY | 0.542 |
| SNU478_BILIARY_TRACT | 0.861 |
| SKLMS1_SOFT_TISSUE | 0.829 |
| TALL1_HAEMATOPOIETIC_AND_LYMPHOID_TISSUE | 0.762 |
| HCC1428_BREAST | 0.667 |
| JHUEM7_ENDOMETRIUM | 1 |
| MDAMB435S_SKIN | 1 |
| MP41_UVEA | 0.212 |
| BICR78_UPPER_AERODIGESTIVE_TRACT | 0.547 |
| ALLSIL_HAEMATOPOIETIC_AND_LYMPHOID_TISSUE | 0.917 |
| A498_KIDNEY | 0.943 |

| Test System | AUC of viability dose-response curve |
| --- | --- |
| SNU1544_LARGE_INTESTINE | 0.806 |
| A388_SKIN | 0.978 |
| CALU6_LUNG | 0.928 |
| SKMEL24_SKIN | 1 |
| NIHOVCAR3_OVARY | 1 |
| GSU_STOMACH | 0.326 |
| UO31_KIDNEY | 1 |
| THP1_HAEMATOPOIETIC_AND_LYMPHOID_TISSUE | 1 |
| UPCISCC111_UPPER_AERODIGESTIVE_TRACT | 1 |
| SNU761_LIVER | 0.855 |
| YKG1_CENTRAL_NERVOUS_SYSTEM | 0.584 |
| NCIH2004RT_SOFT_TISSUE | 1 |
| TT1TKB_LARGE_INTESTINE | 1 |
| OZ_BILIARY_TRACT | 0.851 |
| HCC95_LUNG | 1 |
| GCT_SOFT_TISSUE | 0.541 |
| PL21_HAEMATOPOIETIC_AND_LYMPHOID_TISSUE | 0.499 |
| COGN278_AUTONOMIC_GANGLIA | 0.345 |
| SCABER_URINARY_TRACT | 0.714 |
| AN3CA_ENDOMETRIUM | 0.693 |
| A2780_OVARY | 0.625 |
| EM2_HAEMATOPOIETIC_AND_LYMPHOID_TISSUE | 0.613 |
| HGC27_STOMACH | 0.316 |
